Reference: US12006276B2, “Dibromobenzyl derivative, stereoisomer or salt thereof, and preparation method and application of dibromobenzyl derivative” (CHENGDU SHIBEIKANG BIOMEDICAL TECHNOLOGY CO., LTD., priority 2019, dated 2024)
Where a name gives a salt, the structure may show the parent alone.

Assays:
SD rats = test: Capillary expectoration test in rats; format: in vivo, rat; conditions: for 90-min length of phlegm expelled: SD rats, 15 mg/kg via tail vein, capillary tube in trachea, x ± s, n=10; for Expectorant effect compared with the ambroxol hydrochloride group (in words): rats, 15 mg/kg, P<0.05 vs ambroxol hydrochloride
Procedure: Capillary Expectoration Test in Rats
The female and male SD rats with body weights ranging from 180 g to 220 g are randomLy allocated into 9 groups (n=10 rats). Before measuring the length of phlegm expelled, the rats are prohibited to eat but allowed to drink for 12 hrs, and then administrated via tail veins with corresponding products (dissolved in normal saline to adjust pH) or normal saline. After 30 mins, urethane saline solution (1 g/kg) is injected intraperitoneally for anesthesia, and the rats are fixed in a supine position for neck incision and trachea separation. […] The angle between the capillary tube and the trachea is adjusted to collect the phlegm, and the expectoration effect is evaluated based on a total length (mm) of the phlegm in the capillary tube.

mice = test: Phenol red expectoration test in mice; format: in vivo, mouse; conditions: for Excretory amount of phenol red (OD value): 30 mg/kg as free alkali, twice via tail vein, trachea phenol red at 546 nm, x ± s, n=12; for Excretory amounts of phenol red compared with the control group (in words) / Excretory amounts of phenol red compared with the ambroxol hydrochloride group (in words): 30 mg/kg; for Excretory amounts of phenol red compared with the control group (in words): p<0.05 vs control; for Excretory amounts of phenol red compared with the ambroxol hydrochloride group (in words): P<0.05 vs ambroxol hydrochloride
Procedure: Phenol Red Expectoration Test in Mice
Methods: Seventy-two female and male mice are randomLy allocated into a control group (normal saline), an Example 1 group (30 mg/kg, as free alkali), an Example 3 group (30 mg/kg, as free alkali), an Example 5 group (30 mg/kg, as free alkali), an Example 12 group (30 mg/kg, as free alkali) and an ambroxol hydrochloride group (30 mg/kg, as free alkali) (n=12 mice); These mice are administrated twice in successive via tail veins with corresponding products (dissolved in normal saline to adjust pH) or normal saline, and then receive 5% phenol red saline solution (0.5 g/kg) by hypodermic administration 15 mins after the last dose. […] The effects on excretory amounts of phenol red from trachea of mice among groups are analyzed and compared, and results are shown in Table 2: […]

[1] = Pharmacokinetics test in rats; format: in vivo, rat; conditions: intravenous; for MRT / clearance / half-life / AUC(0-inf): both sexes, rat, plasma, 10 mg/kg as free alkali; for MRT / clearance / half-life: n=6; for AUC(0-inf): n=6, read-out: AUC AUC0-inf; for Half-life, clearance, MRT and AUC compared with the ambroxol hydrochloride group (in words): P<0.05
Procedure: Pharmacokinetics Test in Rats
Methods: Twenty-four female and male rats are randomLy allocated into an Example 1 compound group (10 mg/kg, as free alkali), an Example 3 compound group (10 mg/kg, as free alkali), an Example 12 compound group and an ambroxol hydrochloride group (10 mg/kg, as free alkali) (n=6); These rats are given corresponding products (dissolved in normal saline to adjust pH) intravenously. About 0.2 mL of blood samples is respectively collected from jugular veins before and 15.0 min, 30.0 min, 1.0 h, 2.0 h, 3.0 h, 4.0 h, 6.0 h, 8.0 h, 12.0 h and 24.0 h after the administration, and then centrifuged at a high speed (7800×g) for 15 min in a tube containing EDTA-K2. The separated plasma is stored at −15° C.˜−35° C.

Compound: Nc1c(Br)cc(Br)cc1CN[C@H]1CC[C@H](O)CC1 [Ambroxol hydrochloride, reference compound]
- 90-min length of phlegm expelled (SD rats): 29.9 ± 4.96 mm
- Excretory amount of phenol red (OD value) (mice): 0.131 ± 0.015 OD value
- Excretory amounts of phenol red compared with the control group (in words) (mice): significantly increase
- MRT [1]: 1.18 ± 0.2 h
- clearance [1]: 101 mL/min/kg
- half-life [1]: 1.98 ± 0.34 h
- AUC(0-inf) [1]: 1650 ± 71.9 ng·h/mL

Compound: Nc1c(Br)cc(Br)cc1CN[C@@H]1CCC[C@@H]1C(F)(F)F [Example 7, (1R,2S)-2-trifluoromethyl-((2-amino-3,5-dibromobenzyl)amino)-cyclopentane]
- 90-min length of phlegm expelled (SD rats): 31.8 ± 5.73 mm

Compound: Nc1c(Br)cc(Br)cc1CNC1C2CC3CC1CC(O)(C3)C2 (stereo not drawn) [Example 12, 4-((2-amino-3,5-dibromobenzyl)amino)adamantane-1-ol]
- 90-min length of phlegm expelled (SD rats): 39.8 ± 5.31 mm
- Expectorant effect compared with the ambroxol hydrochloride group (in words) (SD rats): remarkably superior to the ambroxol hydrochloride
- Excretory amount of phenol red (OD value) (mice): 0.221 ± 0.059 OD value
- Excretory amounts of phenol red compared with the ambroxol hydrochloride group (in words) (mice): remarkably superior to the ambroxol hydrochloride
- Excretory amounts of phenol red compared with the control group (in words) (mice): significantly increase
- MRT [1]: 2.65 ± 0.42 h
- clearance [1]: 35.8 mL/min/kg
- half-life [1]: 3.43 ± 0.35 h
- AUC(0-inf) [1]: 4490 ± 240 ng·h/mL
- Half-life, clearance, MRT and AUC compared with the ambroxol hydrochloride group (in words) [1]: significantly superior to the ambroxol hydrochloride group

Compound: Nc1c(Br)cc(Br)cc1CNC12CC3CC(C1)CC(C(F)(F)F)(C3)C2 [Example 6, (2-amino-3,5-dibromobenzyl)-3-trifluoromethyl-adamantane-1-amine]
- 90-min length of phlegm expelled (SD rats): 35.2 ± 4.79 mm

Compound: Nc1c(Br)cc(Br)cc1CNC12CC3CC(CC(O)(C3)C1)C2 [Example 1, 3-((2-amino-3,5-dibromobenzyl)amino)adamantane-1-ol]
- 90-min length of phlegm expelled (SD rats): 39.9 ± 5.35 mm
- Expectorant effect compared with the ambroxol hydrochloride group (in words) (SD rats): remarkably superior to the ambroxol hydrochloride
- Excretory amount of phenol red (OD value) (mice): 0.220 ± 0.063 OD value
- Excretory amounts of phenol red compared with the ambroxol hydrochloride group (in words) (mice): remarkably superior to the ambroxol hydrochloride
- Excretory amounts of phenol red compared with the control group (in words) (mice): significantly increase
- MRT [1]: 2.58 ± 0.41 h
- clearance [1]: 34.9 mL/min/kg
- half-life [1]: 3.58 ± 0.45 h
- AUC(0-inf) [1]: 4470 ± 250 ng·h/mL
- Half-life, clearance, MRT and AUC compared with the ambroxol hydrochloride group (in words) [1]: significantly superior to the ambroxol hydrochloride group

Compound: Nc1c(Br)cc(Br)cc1CNC12CC3CC(CC(C3)C1F)C2 (stereo not drawn) [Example 8, (2-amino-3,5-dibromobenzyl)-2-fluoro-adamantane-1-amine]
- 90-min length of phlegm expelled (SD rats): 35.8 ± 5.98 mm

Compound: Nc1c(Br)cc(Br)cc1CN[C@@H]1CCC[C@H]1O [Example 3, (1R,2R)-2-((2-amino-3,5-dibromobenzyl)amino)-cyclopentanol]
- 90-min length of phlegm expelled (SD rats): 37.8 ± 6.45 mm
- Expectorant effect compared with the ambroxol hydrochloride group (in words) (SD rats): remarkably superior to the ambroxol hydrochloride
- Excretory amount of phenol red (OD value) (mice): 0.218 ± 0.052 OD value
- Excretory amounts of phenol red compared with the ambroxol hydrochloride group (in words) (mice): remarkably superior to the ambroxol hydrochloride
- Excretory amounts of phenol red compared with the control group (in words) (mice): significantly increase
- MRT [1]: 2.31 ± 0.36 h
- clearance [1]: 47.7 mL/min/kg
- half-life [1]: 3.12 ± 0.34 h
- AUC(0-inf) [1]: 3650 ± 180 ng·h/mL
- Half-life, clearance, MRT and AUC compared with the ambroxol hydrochloride group (in words) [1]: significantly superior to the ambroxol hydrochloride group

Compound: CC12CC3CC(C1)CC(NCc1cc(Br)cc(Br)c1N)(C3)C2 [Example 5, (2-amino-3,5-dibromobenzyl)-3-methyl-adamantane-1-amine]
- 90-min length of phlegm expelled (SD rats): 36.9 ± 5.45 mm
- Excretory amount of phenol red (OD value) (mice): 0.201 ± 0.062 OD value
